Source: paper PMC4550478, “Metronidazole-triazole conjugates: Activity against Clostridium difficile and parasites” (European Journal of Medicinal Chemistry, 2015)
≈ marks a conversion by molar mass, not a printed value. Where two headings read alike, the source gives them in different places.

Legend:
[1] = tested on: C. difficile NAP1/027 CD26A54_R; test: MIC broth microdilution, metronidazole resistant C. difficile CD26A54_R; type: cell-based, Clostridium difficile; settings: for MIC: Clostridioides difficile
[2] = tested on: C. difficile VPI10463 ATCC 43255; test: MIC broth microdilution, C. difficile VPI 10463; type: cell-based, Clostridium difficile; settings: VPI 10463, MtzS, 24 h, median of at least n = 4; for MIC: Clostridioides difficile, ATCC 43255 / ATCC BAA-1803
Procedure: (§1) All compounds were tested for activity against a set of anaerobic C. difficile bacteria (630 ATCC BAA-1382, NAP1/027 M7404, NAP1/027 ATCC BAA-1803, VPI10463 ATCC 43255, CD26A54_S and CD26A54_R) and representative ESKAPE pathogens S. aureus (MRSA ATCC 43300), E. coli (ATCC 25922), K. pneumoniae (ATCC 700603), A. baumannii (ATCC 19606) and P. aeruginosa (ATCC 27853) using a standard broth microdilution assay. Selected compounds were tested for activity against H. pylori strains (26695, and clinical isolates MtzS 13/25, MtzR 98/285 and MtzR 13/61) using agar plate dilution, and for antimicrobial activity against […] Gram-positive bacterial strains: Enterococcus faecalis (VanA clinical isolate), Enterococcus faecium (MDR VanA ATCC 51559), Streptococcus pneumoniae (MDR ATCC 700677), S. aureus (MRSA ATCC 43300, MRSA clinical isolate, MRSA/DRSA clinical isolate, GISA NARSA NRS 1, GISA NARSA NRS 17, VRSA NARSA VRS1, VRSA NARSA VRS4 and VRSA NARSA VRS10) using broth microdilution. C. difficile strains were grown at 37 °C in a COY anaerobic chamber (5% H2, 10% CO2, 85% N2). H. pylori strains were grown at 37 °C under a microaerobic atmosphere (5% O2, 10% CO2). All facultative anaerobic bacteria were grown at 37 °C with normal atmospheric oxygen levels. All experiments were performed in duplicate with metronidazole, vancomycin, linezolid or colistin as positive controls for relevant strains (see Table 1). Positive growth control of bacteria and DMSO as well as a negative control of only media were included for every plate. Full assay details are provided in the supplementary information.
(§2) C. difficile ATCC BAA-1382, ATCC BAA-1803, ATCC 43255 and M7404 heat shocked spore stocks (10 µL) were transferred into the anaerobic chamber and 10 µL streaked onto pre-reduced (at least 2.5 hr in anaerobic chamber) BHIS agar plates supplemented with 0.1% w/v sodium taurocholate (BHIS(TA)). Plates were incubated for 24 hours prior to assay to give colonies of size 1-3mm diameter with characteristic uneven borders.
(§3) The minimum inhibition concentration was determined according to the CLSI Methods with modifications in broth and inoculum for C. difficile according to Babakhani et al.^7,8 Briefly, compounds were prepared to 20X final concentration in 100% water, 60% DMSO and 40% water or 60% DMSO and 40% media. The compounds along with standard antibiotics were serially diluted two-fold across the wells of 96-well non-binding surface plates (Non binding surface, Corning). The plates were placed in the anaerobic chamber overnight to reduce. C. difficile bacteria from BHIS(TA) agar plates were cultured anaerobically in BHIS at 37 °C overnight. A sample of culture was then diluted 40-fold in BHIS broth and incubated at 37 °C for approximately 4.5 hrs. The resultant mid-log phase culture (OD600= 0.5-0.6) was diluted to the final concentration of ~1×10^6 CFU/mL, then 50 µL was added to each well of the compound-containing 96-well plates. This gave final cell concentration of 5×10^5 CFU/mL, final volume 100 µL and 3% maximum DMSO concentration. Compound concentration was typically from 64 to 0.03 µg/mL. An antibiotic standard was included on each 96 well plate as well as a positive growth control (no compound) and sterility control (no bacteria). All the plates were covered and incubated at 37 °C for 24 h. MICs were the lowest concentration showing no visible growth.

[3] = tested on: C. difficile NAP1/027 CD26A54_S; test: MIC broth microdilution, C. difficile CD26A54_S; type: cell-based, Clostridium difficile; settings: for MIC: Clostridioides difficile
G. lamblia 713-M3 (713M) = test: ATP-bioluminescence growth and survival assay, metronidazole resistant G. lamblia 713-M3; type: cell-based; settings: Giardia duodenalis, read-out: EC50 G. lamblia 713M
Procedure: Compounds were tested for antiparasitic activity against E. histolytica (HM1:1MSS strain) and G. lamblia (WB, BRIS/87/HEPU/713 (713), BRIS/83/HEPU/106 (106) and the metronidazole resistant syngeneic line 713-M3 [[15,16]]) using an ATP-bioluminescence based screen for cell growth and survival [[17,18]]. Assay plates were inoculated with trophozoites (5 × 10^3 parasites/well) and incubated in the GasPak™ EZ Anaerobe Gas Generating Pouch Systems (VWR, West Chester, PA) to maintain anaerobic conditions throughout the incubation period. The assays were performed in triplicate using the CellTiter-Glo Luminescent Cell Viability Assay. Metronidazole was used as a positive control.
Trophozoites of E. histolytica strain HM1:IMSS and G. lamblia strains WB, BRIS/87/HEPU/713 (713),^10 BRIS/83/HEPU/106 (106)^11 and the metronidazole resistant syngenic line 713-M3^10,11 were axenically maintained in TYI-S-33 medium supplemented with penicillin (100 U/ml), streptomycin (100 µg/ml).^12 E. histolytica and G. lamblia trophozoites were counted using a particle counter (Beckman Coulter, Fullerton, CA). All experiments were performed using trophozoites harvested during the logarithmic phase of growth.
A three-fold serial dilution was then performed yielding a concentration range 0.25-625 µM. From this dilution plate, 4 µL were transferred into the 96-well screen plates followed by addition of 96 µL of trophozoites (5,000 parasites) to yield a final 8-point concentration range spanning 0.01- 25 µM. Assay plates were incubated for 48 h at 37 °C in the GasPak^TM EZ Anaerobe Gas Generating Pouch Systems (VWR, West Chester, PA) to maintain anaerobic condition throughout the incubation period. The assays were performed in triplicate using the CellTiter-Glo Luminescent Cell Viability Assay.^13

[4] = tested on: C. difficile 630 ATCC BAA-1382; test: MIC broth microdilution, C. difficile 630; type: cell-based, Clostridium difficile; settings: 24 h, median of at least n = 4; for MIC: Clostridioides difficile, ATCCBAA1382, MtzS
Procedure: as §1, §2, §3

[5] = 24 hr incubation, read-out: MIC C. difficile NAP1/027 CD26A54_R 24 hr
[6] = CD26A54_R, MtzR, 48 h growth, BHIS broth, n = 8, read-out: MIC C. difficile NAP1/027 CD26A54_R 48 h
[7] = 24 hr incubation, read-out: MIC C. difficile NAP1/027 CD26A54_S 24 hr
[8] = CD26A54_S, MtzS (intermediary), 48 h growth, read-out: MIC C. difficile NAP1/027 CD26A54_S 48 h

Row | SMILES | MIC C. difficile NAP1/027 CD26A54_R 24 hr ([1]; 24 hr incubation) [µg/mL] | MIC [1, 5] [µg/mL] | MIC [1, 6] [µg/mL] | MIC [2] [µg/mL] | MIC [3, 7] [µg/mL] | MIC [3, 8] [µg/mL] | EC50 (G. lamblia 713-M3 (713M)) [nM] | MIC [4] [µg/mL] | MIC C. difficile NAP1/027 CD26A54_R 48 h ([1]; CD26A54_R, MtzR, 48 h growth, BHIS broth, n = 8) [µg/mL] | MIC C. difficile VPI 10463 [2] [µg/mL] | MIC C. difficile NAP1/027 CD26A54_S 24 hr ([3]; 24 hr incubation) [µg/mL] | MIC C. difficile NAP1/027 CD26A54_S 48 h ([3]; CD26A54_S, MtzS (intermediary), 48 h growth) [µg/mL] | MIC C. difficile 630 ([4]; MtzS) [µg/mL]
1 | Cc1ncc([N+](=O)[O-])n1CCO [Compound 1, metronidazole] | 2 (≈ 11.7 µM) | 2 (≈ 11.7 µM) | 4 (≈ 23.4 µM) | 0.5 (≈ 2.92 µM) | 1 (≈ 5.84 µM) | 1 (≈ 5.84 µM) | 17000 | 0.5 (≈ 2.92 µM) | – | – | – | – | –
2 | Cc1ncc([N+](=O)[O-])n1CCN=[N+]=[N-] [Compound 3, 1-(2-azidoethyl)-2-methyl-5-nitro-1H-imidazole] | 4 (≈ 20.4 µM) | – | – | – | – | – | – | – | 8 (≈ 40.8 µM) | 0.5 (≈ 2.55 µM) | 2 (≈ 10.2 µM) | 2 (≈ 10.2 µM) | 1 (≈ 5.1 µM)
3 | Cc1ncc([N+](=O)[O-])n1CCn1cc(-c2ccccc2)nn1 [Compound 4a, 1-(2-(2-methyl-5-nitro-1H-imidazol-1-yl)ethyl)-4-phenyl-1H-1,2,3-triazole] | – | 2 (≈ 6.7 µM) | 2 (≈ 6.7 µM) | 0.25 to 0.5 (≈ 0.838 to 1.68 µM) | 1 (≈ 3.35 µM) | 1 (≈ 3.35 µM) | 2300 | 0.5 (≈ 1.68 µM) | – | – | – | – | –
4 | COc1ccc(-c2cn(CCn3c([N+](=O)[O-])cnc3C)nn2)cc1 [Compound 4b, 1-(2-(2-methyl-5-nitro-1H-imidazol-1-yl)ethyl)-4-(4-methoxyphenyl)-1H-1,2,3-triazole] | – | 4 (≈ 12.2 µM) | 4 (≈ 12.2 µM) | 0.25 to 0.5 (≈ 0.761 to 1.52 µM) | 1 (≈ 3.05 µM) | 1 (≈ 3.05 µM) | 1000 | 0.5 (≈ 1.52 µM) | – | – | – | – | –
5 | Cc1ncc([N+](=O)[O-])n1CCn1cc(-c2ccc(Cl)cc2)nn1 [Compound 4c, 1-(2-(2-methyl-5-nitro-1H-imidazol-1-yl)ethyl)-4-(4-chlorophenyl)-1H-1,2,3-triazole] | – | 8 (≈ 24 µM) | 16 (≈ 48.1 µM) | 0.25 (≈ 0.751 µM) | 1 to 2 (≈ 3.01 to 6.01 µM) | 2 (≈ 6.01 µM) | 3500 | 0.5 (≈ 1.5 µM) | – | – | – | – | –
6 | Cc1ncc([N+](=O)[O-])n1CCn1cc(Cn2cccn2)nn1 [Compound 4g, 1-(2-(2-methyl-5-nitro-1H-imidazol-1-yl)ethyl)-4-((1H-pyrazol-1-yl)methyl)-1H-1,2,3-triazole] | – | 4 (≈ 13.2 µM) | 4 (≈ 13.2 µM) | 1 (≈ 3.31 µM) | 2 (≈ 6.62 µM) | 2 (≈ 6.62 µM) | – | 1 (≈ 3.31 µM) | – | – | – | – | –
7 | Cc1ncc([N+](=O)[O-])n1CCn1cc(-c2cncnc2)nn1 [Compound 4i, 1-(2-(2-methyl-5-nitro-1H-imidazol-1-yl)ethyl)-4-(5-pyrimidinyl)-1H-1,2,3-triazole] | – | 2 (≈ 6.66 µM) | 4 (≈ 13.3 µM) | 1 (≈ 3.33 µM) | 1 (≈ 3.33 µM) | 1 (≈ 3.33 µM) | – | 1 (≈ 3.33 µM) | – | – | – | – | –
